Test results published in ChEMBL document CHEMBL3885881, “DrugMatrix”.

Species: Rattus norvegicus
Experiment: DrugMatrix - Regimen: Daily Repeat
Format: toxicity, organism-based, Sprague-Dawley
Parameters: regimen Daily Repeat, gender Male, age 6-8 weeks
Settings: in vivo, po, route oral GAVAGE, […]; for ABSOLUTE BASOPHIL / ABSOLUTE EOSINOPHIL / ABSOLUTE LYMPHOCYTE / ABSOLUTE MONOCYTE / ABSOLUTE SEGMENTED NEUTROPHIL / BASOPHIL / EOSINOPHIL / ERYTHROCYTE COUNT / HEMATOCRIT / HEMOGLOBIN / LEUKOCYTE COUNT / LYMPHOCYTE / MEAN CORPUSCULAR HEMOGLOBIN / MEAN CORPUSCULAR HEMOGLOBIN CONCENTRATION / MEAN CORPUSCULAR VOLUME / MONOCYTE / NEUTROPHIL / NUCLEATED RED BLOOD CELLS / PLATELET COUNT: tissue Blood; for ALANINE AMINOTRANSFERASE / ALBUMIN / ALKALINE PHOSPHATASE / ASPARTATE AMINOTRANSFERASE / BLOOD UREA NITROGEN / CARBON DIOXIDE / CHLORIDE / CHOLESTEROL / CREATINE PHOSPHOKINASE / CREATININE / GLUCOSE / LACTATE DEHYDROGENASE / LIPASE / PHOSPHORUS / POTASSIUM / SODIUM / TOTAL BILIRUBIN / TOTAL PROTEIN / URIC ACID: tissue Plasma
[1] = 10 mg/kg, 120 h, dose level Low, time 5 day
[2] = 1100 mg/kg, 72 h, dose level High, time 3 day
[3] = 1100 mg/kg, 120 h, dose level High, time 5 day

## COCCOC(=O)C1=C(C)NC(C)=C(C(=O)OC(C)C)C1c1cccc([N+](=O)[O-])c1 (centres undefined) [NIMODIPINE]
[1]
  ABSOLUTE BASOPHIL: 0 CELLS/uL
  ABSOLUTE EOSINOPHIL: 0 CELLS/uL
  ABSOLUTE LYMPHOCYTE: 13499.67 CELLS/uL
  ABSOLUTE MONOCYTE: 96.33 CELLS/uL
  ABSOLUTE SEGMENTED NEUTROPHIL: 1037.33 CELLS/uL
  BASOPHIL: 0%
  EOSINOPHIL: 0%
  ERYTHROCYTE COUNT: 5.7 x10E6/uL
  HEMATOCRIT: 36.23%
  HEMOGLOBIN: 13.9 G/DL
  LEUKOCYTE COUNT: 14.63 x10E3/uL
  LYMPHOCYTE: 92.67%
  MEAN CORPUSCULAR HEMOGLOBIN: 24.4 pg
  MEAN CORPUSCULAR HEMOGLOBIN CONCENTRATION: 38.37 G/DL
  MEAN CORPUSCULAR VOLUME: 63.63 fL
  MONOCYTE: 0.67%
  NEUTROPHIL: 6.67%
  NUCLEATED RED BLOOD CELLS: 0 /100WBC
  PLATELET COUNT: 940 x10E3/uL
  ALANINE AMINOTRANSFERASE: 59.33 u/L
  ALBUMIN: 4.3 G/DL
  ALKALINE PHOSPHATASE: 389.33 u/L
  ASPARTATE AMINOTRANSFERASE: 102.33 u/L
  BLOOD UREA NITROGEN: 15 mg/dL
  CARBON DIOXIDE: 31.67 mmol/L
  CHLORIDE: 100 MEQ/L
  CHOLESTEROL: 63 mg/dL
  CREATINE PHOSPHOKINASE: 716.33 u/L
  CREATININE: 0.16 mg/dL
  GLUCOSE: 145.33 mg/dL
  LACTATE DEHYDROGENASE: 194.33 u/L
  LIPASE: 9.33 u/L
  PHOSPHORUS: 10.4 mg/dL
  POTASSIUM: 5.95 MEQ/L
  SODIUM: 143.1 MEQ/L
  TOTAL BILIRUBIN: 0.23 mg/dL
  TOTAL PROTEIN: 6.2 G/DL
  URIC ACID: 0.83 mg/dL
[2]
  ABSOLUTE BASOPHIL: 0 CELLS/uL
  ABSOLUTE EOSINOPHIL: 0 CELLS/uL
  ABSOLUTE LYMPHOCYTE: 8640.33 CELLS/uL
  ABSOLUTE MONOCYTE: 0 CELLS/uL
  ABSOLUTE SEGMENTED NEUTROPHIL: 859.67 CELLS/uL
  BASOPHIL: 0%
  EOSINOPHIL: 0%
  ERYTHROCYTE COUNT: 6.21 x10E6/uL
  HEMATOCRIT: 37.2%
  HEMOGLOBIN: 14.77 G/DL
  LEUKOCYTE COUNT: 9.5 x10E3/uL
  LYMPHOCYTE: 91%
  MEAN CORPUSCULAR HEMOGLOBIN: 23.77 pg
  MEAN CORPUSCULAR HEMOGLOBIN CONCENTRATION: 39.7 G/DL
  MEAN CORPUSCULAR VOLUME: 59.87 fL
  MONOCYTE: 0%
  NEUTROPHIL: 9%
  NUCLEATED RED BLOOD CELLS: 0.33 /100WBC
  PLATELET COUNT: 1341.67 x10E3/uL
  ALANINE AMINOTRANSFERASE: 90 u/L
  ALBUMIN: 4.17 G/DL
  ALKALINE PHOSPHATASE: 427.67 u/L
  ASPARTATE AMINOTRANSFERASE: 82.67 u/L
  BLOOD UREA NITROGEN: 13 mg/dL
  CARBON DIOXIDE: 27.33 mmol/L
  CHLORIDE: 97.67 MEQ/L
  CHOLESTEROL: 77.67 mg/dL
  CREATINE PHOSPHOKINASE: 248.33 u/L
  CREATININE: 0.17 mg/dL
  GLUCOSE: 211.67 mg/dL
  LACTATE DEHYDROGENASE: 205.33 u/L
  LIPASE: 11.33 u/L
  PHOSPHORUS: 10.23 mg/dL
  POTASSIUM: 4.32 MEQ/L
  SODIUM: 139.8 MEQ/L
  TOTAL BILIRUBIN: 0.4 mg/dL
  TOTAL PROTEIN: 6.33 G/DL
  URIC ACID: 0.47 mg/dL
[3]
  ABSOLUTE BASOPHIL: 0 CELLS/uL
  ABSOLUTE EOSINOPHIL: 0 CELLS/uL
  ABSOLUTE LYMPHOCYTE: 5312.67 CELLS/uL
  ABSOLUTE MONOCYTE: 159.33 CELLS/uL
  ABSOLUTE SEGMENTED NEUTROPHIL: 1728 CELLS/uL
  BASOPHIL: 0%
  EOSINOPHIL: 0%
  ERYTHROCYTE COUNT: 7.19 x10E6/uL
  HEMATOCRIT: 42.83%
  HEMOGLOBIN: 16.87 G/DL
  LEUKOCYTE COUNT: 7.2 x10E3/uL
  LYMPHOCYTE: 75.67%
  MEAN CORPUSCULAR HEMOGLOBIN: 23.43 pg
  MEAN CORPUSCULAR HEMOGLOBIN CONCENTRATION: 39.33 G/DL
  MEAN CORPUSCULAR VOLUME: 59.63 fL
  MONOCYTE: 2%
  NEUTROPHIL: 22.33%
  NUCLEATED RED BLOOD CELLS: 0 /100WBC
  PLATELET COUNT: 1410 x10E3/uL
  ALANINE AMINOTRANSFERASE: 65.33 u/L
  ALBUMIN: 4 G/DL
  ALKALINE PHOSPHATASE: 160 u/L
  ASPARTATE AMINOTRANSFERASE: 89.33 u/L
  BLOOD UREA NITROGEN: 43.67 mg/dL
  CARBON DIOXIDE: 34.33 mmol/L
  CHLORIDE: 84 MEQ/L
  CHOLESTEROL: 75 mg/dL
  CREATINE PHOSPHOKINASE: 283.67 u/L
  CREATININE: 0.22 mg/dL
  GLUCOSE: 198.67 mg/dL
  LACTATE DEHYDROGENASE: 180 u/L
  LIPASE: 12.33 u/L
  PHOSPHORUS: 9.97 mg/dL
  POTASSIUM: 3.85 MEQ/L
  SODIUM: 133.83 MEQ/L
  TOTAL BILIRUBIN: 0.3 mg/dL
  TOTAL PROTEIN: 6.2 G/DL
  URIC ACID: 0.3 mg/dL
